Experimental data as given in PMC7946776 (Journal of immunology (Baltimore, Md. : 1950), 2021).

Biological target: mouse Asah2 (Mus musculus, UniProt Q9JHE3)
Assay: fluorogenic ceramidase activity assay
Type: biochemical

mouse Asah2, sequence (Q9JHE3 whole entry): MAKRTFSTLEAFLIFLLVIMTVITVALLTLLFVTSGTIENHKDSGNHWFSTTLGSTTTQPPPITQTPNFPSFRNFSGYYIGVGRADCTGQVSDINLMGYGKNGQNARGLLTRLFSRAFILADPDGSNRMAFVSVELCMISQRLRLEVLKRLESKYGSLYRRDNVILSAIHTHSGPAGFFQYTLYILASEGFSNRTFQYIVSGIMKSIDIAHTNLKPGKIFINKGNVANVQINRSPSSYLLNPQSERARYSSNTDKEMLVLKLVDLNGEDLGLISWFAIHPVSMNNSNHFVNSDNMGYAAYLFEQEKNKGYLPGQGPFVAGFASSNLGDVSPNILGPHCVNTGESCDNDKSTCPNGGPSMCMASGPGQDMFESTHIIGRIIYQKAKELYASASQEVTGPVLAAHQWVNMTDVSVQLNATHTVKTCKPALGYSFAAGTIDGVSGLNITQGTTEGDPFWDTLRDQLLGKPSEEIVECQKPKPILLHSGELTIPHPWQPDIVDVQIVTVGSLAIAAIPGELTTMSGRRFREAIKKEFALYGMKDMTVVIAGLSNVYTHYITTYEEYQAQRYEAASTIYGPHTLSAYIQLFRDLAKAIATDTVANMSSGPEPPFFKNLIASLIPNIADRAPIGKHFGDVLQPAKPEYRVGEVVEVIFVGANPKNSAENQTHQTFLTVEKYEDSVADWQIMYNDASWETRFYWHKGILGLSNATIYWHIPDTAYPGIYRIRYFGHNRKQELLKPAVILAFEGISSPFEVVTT

IC50: 30.2 µM
SMILES: O=c1nc(Nc2cccc(Cl)c2)oc2cc(Cl)oc(=O)c12 [NC06, 7-chloro-2-(3-chloroanilino)pyrano[3,4-e][1,3]oxazine-4,5-dione]
